Some test systems named below: UACC-257 melanoma; HCT-15 colon; MOLT-4 leukemia; SNB-75 CNS; SK-MEL-28 melanoma; MCF7 breast; RXF 393 renal; OVCAR-8 ovarian; SF-295 CNS; UACC-62 melanoma.
Common to all, as to experiment: NCI anticancer screen, dose series, 48 h

Structures are written as SMILES.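 These data come from cells grown in 96-well plates and exposed to compound for 48 hours at five concentrations. At the GI50, growth is halved. Definition used: TGI = concentration required for complete inhibition of growth.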

For the compound `COc1ccc(Cn2cc3c(c2-c2ccc(OC)cc2)CCc2cnoc2-3)cc1`, the GI50 with UACC-257 melanoma was 1.57 µM; in the assay with HCT-15 colon, 0.506 µM; in the assay on MOLT-4 leukemia it was 0.504 µM; in the assay with SNB-75 CNS it was 0.216 µM; in the assay with SK-MEL-28 melanoma it was 0.804 µM; with MCF7 breast, 0.389 µM. For the same compound, the GI50 with RXF 393 renal is 0.322 µM; in the assay on OVCAR-8 ovarian it was 0.621 µM; in the assay with SF-295 CNS, 0.27 µM; with UACC-62 melanoma, 0.547 µM. The TGI with UACC-257 melanoma is over 100 µM; in the assay with HCT-15 colon, over 100 µM; in the assay with MOLT-4 leukemia, over 35 µM; in the assay with SNB-75 CNS, 0.804 µM; in the assay with SK-MEL-28 melanoma, over 100 µM; in the assay with MCF7 breast, over 100 µM. Also, the figures for the TGI with OVCAR-8 ovarian, with SF-295 CNS and in the assay with UACC-62 melanoma were over 100 µM, 0.96 µM and over 100 µM, respectively.

As for `CCCCS(=O)(=O)CCC(N)C(=O)O` (configuration not stated), the TGI in the assay with UACC-257 melanoma, with HCT-15 colon, with MOLT-4 leukemia, with SNB-75 CNS, in the assay on SK-MEL-28 melanoma and with MCF7 breast was over 100 µM in each case. Further, the TGI in the assay with RXF 393 renal, in the assay on OVCAR-8 ovarian, in the assay on SF-295 CNS and in the assay with UACC-62 melanoma was over 100 µM each time.

Consider `CC[C@@H](C(=O)[C@@H](C)[C@@H](O)[C@H](C)[C@@H]1O[C@@H]([C@@H](CC)C(=O)N(CC)CC)CC[C@@H]1C)C1O[C@]2(C=CC(=O)[C@]3(CC[C@@](C)([C@H]4CC[C@](O)(CC)[C@H](C)O4)O3)O2)[C@H](C)C[C@@H]1C` (some centres not stated), for which the GI50 in the assay on UACC-257 melanoma is 3.17 µM; with HCT-15 colon it was 2.02 µM; in the assay on MOLT-4 leukemia, 2.66 µM; in the assay with SNB-75 CNS it was 1.9 µM; in the assay with SK-MEL-28 melanoma, 4.45 µM; in the assay on MCF7 breast it was 2.41 µM. Besides, the GI50 in the assay on RXF 393 renal was 1.66 µM; in the assay on OVCAR-8 ovarian, 3.55 µM; with SF-295 CNS, 2.26 µM; with UACC-62 melanoma it was 1.83 µM. In addition, the TGI in the assay with UACC-257 melanoma worked out at 19.9 µM; in the assay with HCT-15 colon, 4.51 µM; in the assay on MOLT-4 leukemia, 8.06 µM; with SNB-75 CNS, 17.4 µM; in the assay with SK-MEL-28 melanoma, 21.3 µM; in the assay with MCF7 breast, 8.11 µM. The TGI is 4.06 µM in the assay with RXF 393 renal, over 100 µM with OVCAR-8 ovarian, 6.51 µM in the assay on SF-295 CNS and 5.81 µM in the assay on UACC-62 melanoma.

On to `COc1cc(O)c(C(=O)/C=C/c2ccc(O)cc2)c(O)c1[C@@H]1C[C@H](CCc2ccc(O)cc2)O[C@H](c2ccc(O)cc2)C1`, for which the GI50 in the assay on UACC-257 melanoma is 5.47 µM; in the assay with HCT-15 colon, 3.43 µM; with MOLT-4 leukemia, 1.95 µM; in the assay with SNB-75 CNS, 2.59 µM; in the assay on SK-MEL-28 melanoma, 3.83 µM; with MCF7 breast, 3.08 µM. Also, the GI50 is 3.1 µM in the assay on RXF 393 renal, 3.77 µM with OVCAR-8 ovarian, 4.36 µM in the assay on SF-295 CNS and 3.38 µM in the assay with UACC-62 melanoma. Also, the TGI in the assay with UACC-257 melanoma stood at 20.2 µM; in the assay with HCT-15 colon, 11.9 µM; in the assay on MOLT-4 leukemia it was 5.43 µM; with SNB-75 CNS, 7.44 µM; with SK-MEL-28 melanoma, 14.1 µM; in the assay with MCF7 breast, 8.85 µM. Besides, the TGI with RXF 393 renal turned out to be 9.07 µM; with OVCAR-8 ovarian, 29.1 µM; in the assay with SF-295 CNS, 17.8 µM; in the assay with UACC-62 melanoma it was 12.9 µM.

For the compound `COc1cc(/C=C/C(=O)c2ccc(NC(=O)CN3CCN(c4cc5c(cc4F)c(=O)c(C(=O)O)cn5C4CC4)CC3)cc2)cc(OC)c1OC`, the GI50 in the assay with UACC-257 melanoma is 1.42 µM; with HCT-15 colon it was 0.575 µM; with MOLT-4 leukemia, 1.27 µM; with SNB-75 CNS, 2.41 µM; in the assay with SK-MEL-28 melanoma it was 1.42 µM; in the assay on MCF7 breast it was 0.381 µM. Moreover, the GI50 in the assay on RXF 393 renal is 0.273 µM; in the assay on OVCAR-8 ovarian, 0.401 µM; in the assay on SF-295 CNS it was 0.98 µM; in the assay on UACC-62 melanoma, 0.887 µM. Besides, the TGI in the assay with UACC-257 melanoma was 65.4 µM; in the assay on HCT-15 colon, over 100 µM; in the assay on MOLT-4 leukemia, over 100 µM; in the assay with SNB-75 CNS, over 23.9 µM; in the assay on SK-MEL-28 melanoma it was 12.7 µM; in the assay with MCF7 breast, over 100 µM. In addition, the TGI in the assay on RXF 393 renal was 0.803 µM; in the assay with OVCAR-8 ovarian, 26.9 µM; in the assay on SF-295 CNS it was 3.69 µM; in the assay on UACC-62 melanoma, 3.39 µM.

As to `O=C(NP(=O)(N1CC1)N1CC1)c1cc(I)ccc1I`, the TGI in the assay on UACC-257 melanoma was over 100 µM; in the assay with HCT-15 colon it was over 100 µM; in the assay with MOLT-4 leukemia, over 100 µM; in the assay with SNB-75 CNS it was 79.1 µM; in the assay with SK-MEL-28 melanoma, over 100 µM; with MCF7 breast it was over 100 µM. Also, the TGI in the assay on RXF 393 renal is over 87.8 µM; with OVCAR-8 ovarian, over 94.4 µM; in the assay on SF-295 CNS, over 100 µM; in the assay with UACC-62 melanoma, 57.6 µM.

On to `COc1cc(C2=C(C#Cc3ccccc3)COC2=O)cc(OC)c1OC`, for which the GI50 is 6.17 µM in the assay with UACC-257 melanoma; 1.3 µM in the assay on HCT-15 colon; 30.1 µM with MOLT-4 leukemia; 4.98 µM in the assay on SNB-75 CNS; 0.193 µM in the assay with MCF7 breast; 1.35 µM with RXF 393 renal. In addition, the figures for the GI50 in the assay with OVCAR-8 ovarian, in the assay with SF-295 CNS and in the assay on UACC-62 melanoma were 5.37 µM, 0.687 µM and 0.288 µM, respectively. The TGI in the assay with UACC-257 melanoma is over 70.4 µM; in the assay on HCT-15 colon, 9.39 µM; in the assay with MOLT-4 leukemia it was over 100 µM; with SNB-75 CNS it was over 100 µM; in the assay with SK-MEL-28 melanoma, over 100 µM; with MCF7 breast, over 100 µM. In addition, the TGI in the assay on RXF 393 renal was over 100 µM; in the assay with OVCAR-8 ovarian it was over 45.4 µM; with UACC-62 melanoma, 4.12 µM.

Regarding `COc1cc2c3c(n(CCCI)c(=O)c2cc1OC)-c1cc2c(cc1C3=O)OCO2`, the GI50 in the assay with UACC-257 melanoma is 3.77 µM; in the assay with HCT-15 colon, 0.475 µM; in the assay on MOLT-4 leukemia it was 0.126 µM; in the assay on SNB-75 CNS it was over 100 µM; in the assay with SK-MEL-28 melanoma, 52.1 µM; in the assay with MCF7 breast, 0.404 µM. Also, the GI50 is 6.81 µM with RXF 393 renal, 3.16 µM in the assay with OVCAR-8 ovarian, 0.776 µM in the assay on SF-295 CNS and 0.202 µM in the assay on UACC-62 melanoma. Moreover, the TGI was 49.4 µM with UACC-257 melanoma; over 100 µM with HCT-15 colon; over 100 µM in the assay on MOLT-4 leukemia; over 100 µM with SNB-75 CNS; over 100 µM in the assay with SK-MEL-28 melanoma; 6.01 µM in the assay on MCF7 breast. For the same compound, the TGI is over 100 µM in the assay with RXF 393 renal, 81.8 µM in the assay with OVCAR-8 ovarian, over 100 µM with SF-295 CNS and 1.91 µM in the assay on UACC-62 melanoma.

On to `COc1ccc2c(c1)C(=O)c1c-2c(Nc2ccc(Cl)cc2)nc2ccccc12`, for which the GI50 in the assay on UACC-257 melanoma is 27.8 µM; in the assay on HCT-15 colon it was 42.3 µM; in the assay on MOLT-4 leukemia, 27.5 µM; in the assay on SNB-75 CNS, 4.27 µM; in the assay on SK-MEL-28 melanoma it was 19.7 µM; in the assay on MCF7 breast it was over 100 µM. Besides, the GI50 is 2.06 µM in the assay on RXF 393 renal, 11.4 µM in the assay with OVCAR-8 ovarian, 16.7 µM in the assay with SF-295 CNS and 11.3 µM in the assay on UACC-62 melanoma. In addition, the TGI in the assay on UACC-257 melanoma is over 100 µM; with HCT-15 colon, over 100 µM; with MOLT-4 leukemia, over 100 µM; in the assay on SNB-75 CNS it was 22.8 µM; with SK-MEL-28 melanoma, over 100 µM; in the assay on MCF7 breast it was over 100 µM. For the same compound, the TGI in the assay on RXF 393 renal was found to be 6.35 µM; in the assay on OVCAR-8 ovarian, 29.6 µM; with SF-295 CNS, 46.6 µM; in the assay on UACC-62 melanoma, 26 µM.

In the case of `Nc1nc(-c2ccccc2)nc(N)c1N=O`, the GI50 in the assay on UACC-257 melanoma was 8.75 µM; in the assay on HCT-15 colon, 3.03 µM; in the assay with MOLT-4 leukemia, 17.4 µM; with SNB-75 CNS, 5.21 µM; with SK-MEL-28 melanoma, 11.9 µM; in the assay with MCF7 breast, 5.85 µM. For the same compound, the GI50 was 2.07 µM in the assay on RXF 393 renal, 7.55 µM with OVCAR-8 ovarian, 18.1 µM in the assay with SF-295 CNS and 3.6 µM in the assay with UACC-62 melanoma. Further, the TGI was 44.3 µM in the assay with UACC-257 melanoma; 11.1 µM in the assay with HCT-15 colon; over 100 µM in the assay on MOLT-4 leukemia; 19.1 µM in the assay on SNB-75 CNS; 30.6 µM in the assay with SK-MEL-28 melanoma; 27.1 µM in the assay with MCF7 breast. Moreover, the TGI worked out at 7.07 µM with RXF 393 renal, 53.7 µM in the assay on OVCAR-8 ovarian, 52.9 µM in the assay with SF-295 CNS and 14 µM with UACC-62 melanoma.

For the compound `CC1(C)[C@@H](O[C@@H]2OC[C@@H](O[C@@H]3O[C@H](CO)[C@@H](O)[C@H](O)[C@H]3O[C@@H]3OC[C@@H](O)[C@H](O)[C@H]3O)[C@H](O)[C@H]2O[C@@H]2O[C@H](CO)[C@@H](O)[C@H](O)[C@H]2O)CC[C@]2(C)[C@H]3CC[C@]45OC[C@@]6(CC[C@](C)(C=O)C[C@H]64)[C@H](O)C[C@@]5(C)[C@]3(C)CC[C@@H]12`, the GI50 with UACC-257 melanoma was 0.92 µM; in the assay on HCT-15 colon, 1.62 µM; in the assay on MOLT-4 leukemia it was 0.962 µM; in the assay on SNB-75 CNS, 0.746 µM; with SK-MEL-28 melanoma, 0.903 µM; in the assay with MCF7 breast, 0.972 µM. Moreover, the GI50 in the assay on RXF 393 renal was 0.892 µM; in the assay on OVCAR-8 ovarian, 1.07 µM; in the assay on SF-295 CNS, 0.892 µM; in the assay with UACC-62 melanoma it was 0.909 µM. In addition, the TGI in the assay with UACC-257 melanoma came to 1.83 µM; in the assay with HCT-15 colon, 4.37 µM; in the assay with MOLT-4 leukemia, 2.31 µM; in the assay on SNB-75 CNS it was 1.53 µM; with SK-MEL-28 melanoma, 1.77 µM; with MCF7 breast, 2.43 µM. The TGI with RXF 393 renal came out at 2.07 µM; in the assay with OVCAR-8 ovarian, 2.57 µM; in the assay on SF-295 CNS, 1.64 µM; in the assay with UACC-62 melanoma, 1.81 µM.
